Consider 6 compounds from PMC1079883, “Effects of first and second generation antihistamines on muscarinic induced mucus gland cell ion transport” (BMC Pharmacology, 2005).

Read-outs that look alike come from different tables or passages of the source.

Assay [1] concerns the target T1, M3 subtype muscarinic receptor (Sus scrofa, UniProt P11483).
T1 construct: Tracheal submucosal gland cells were isolated from the tracheal epithelium; endogenous in cells; host or cells: primary swine tracheal submucosal (mucus) gland cells in culture
As to the kind of experiment: ACh-induced short-circuit current (ΔIsc) in cultured airway mucus gland cells, Ussing chamber, Schild dose-ratio method. Format: cell-based, swine. Particulars: for effect on the cholinergic (ACh) response / antimuscarinic action: at highest drug concentration tested: cetirizine 100 μM, loratadine 30 μM (Table 1; abstract 10 μM), fexofenadine 10 μM; for Muscarinic inhibition (pA2): Schild dose-ratio method, slope set to 1, inhibition of ACh-induced ΔIsc, pA2 = -log Ki, mean ± SEM.

The next assay has as its target T2, H1 receptor (Sus scrofa, UniProt K9IVW0).
T2 construct: Tracheal submucosal gland cells were isolated from the tracheal epithelium; endogenous in cells; host or cells: primary swine tracheal submucosal (mucus) gland cells in culture
As to the kind of experiment: histamine-induced short-circuit current (ΔIsc) in cultured airway mucus gland cells, Ussing chamber. Format: cell-based, swine.

In assay [2] the target is muscarinic receptors in the cerebral cortex. Particulars: read-out: Ki against muscarinic receptors, radioligand (QNB) binding, all muscarinic subtypes, ref 16 Kubo et al.; cited from earlier work.
The target in a further assay is histamine H1 receptor. Particulars: radioligand binding assays; ref 18 Anthes et al.; cited from earlier work.
The mark [3] stands for this setting: read-out: H1 receptor inhibition (~1/2 max-μM).

T1 sequence (P11483 whole entry): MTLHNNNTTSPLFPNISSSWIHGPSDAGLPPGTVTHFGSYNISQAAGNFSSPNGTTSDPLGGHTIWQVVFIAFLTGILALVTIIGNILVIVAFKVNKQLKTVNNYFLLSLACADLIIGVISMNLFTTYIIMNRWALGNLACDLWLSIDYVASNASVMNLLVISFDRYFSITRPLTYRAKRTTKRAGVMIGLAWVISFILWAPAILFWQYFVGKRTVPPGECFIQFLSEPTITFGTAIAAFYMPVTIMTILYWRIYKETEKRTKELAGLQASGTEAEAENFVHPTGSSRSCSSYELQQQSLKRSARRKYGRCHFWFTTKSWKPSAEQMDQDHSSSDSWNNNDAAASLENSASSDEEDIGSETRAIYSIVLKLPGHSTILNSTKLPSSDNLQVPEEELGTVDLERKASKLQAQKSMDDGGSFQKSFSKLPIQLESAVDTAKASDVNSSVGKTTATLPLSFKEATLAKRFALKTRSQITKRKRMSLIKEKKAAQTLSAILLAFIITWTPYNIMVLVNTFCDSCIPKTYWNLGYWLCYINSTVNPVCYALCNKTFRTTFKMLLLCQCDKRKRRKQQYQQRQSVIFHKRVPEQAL
T2 sequence (K9IVW0 1-472): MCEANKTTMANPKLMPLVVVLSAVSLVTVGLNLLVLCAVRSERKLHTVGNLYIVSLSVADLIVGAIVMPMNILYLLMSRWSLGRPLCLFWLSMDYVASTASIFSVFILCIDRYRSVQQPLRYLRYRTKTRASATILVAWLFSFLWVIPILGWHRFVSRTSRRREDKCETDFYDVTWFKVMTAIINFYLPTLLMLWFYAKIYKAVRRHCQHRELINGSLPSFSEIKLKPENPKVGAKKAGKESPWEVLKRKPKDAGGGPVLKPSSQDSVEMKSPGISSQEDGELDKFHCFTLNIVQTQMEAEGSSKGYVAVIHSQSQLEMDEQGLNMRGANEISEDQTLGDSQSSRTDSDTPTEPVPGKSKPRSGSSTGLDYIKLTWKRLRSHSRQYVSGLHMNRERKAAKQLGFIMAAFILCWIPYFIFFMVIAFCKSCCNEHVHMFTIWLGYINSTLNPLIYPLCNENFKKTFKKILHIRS

`CC(=O)OCC[N+](C)(C)C` [ACh, acetylcholine]: the “maximum increase in current (ΔIsc)” value in assay [1] worked out at 15.5 ± 1 μA/cm^2.

In the case of `O=C(O)COCCN1CCN(C(c2ccccc2)c2ccc(Cl)cc2)CC1` (centres unmarked) [Cetirizine], the “effect on the cholinergic (ACh) response / antimuscarinic action” value in assay [1] was “No effect (at 100 μM)”; in assay [1] (listed as cetirizine) it was “no effects”. Besides, the IC50 on H1 receptor (setting [3]) stood at 0.12 µM.

For `CC(C)(C(=O)O)c1ccc(C(O)CCCN2CCC(C(O)(c3ccccc3)c3ccccc3)CC2)cc1` (centres unmarked) [Fexofenadine], the IC50 against H1 receptor (H1 receptor inhibition (~1/2 max-μM)) was 0.25 µM.

The term Ki denotes a dissociation constant, usually derived from enzyme kinetics or from competition with a known ligand. Consider `OCCOCCN1CCN(C(c2ccccc2)c2ccc(Cl)cc2)CC1` (centres unmarked) [Hydroxyzine], for which the Kb in assay [1] is 15800 nM; on histamine H1 receptor it was 10 nM. Also, the Ki in assay [1] (M3 muscarinic receptor induced ΔIsc, from Schild analysis, read-out: estimated Ki for inhibition of muscarinic receptors) was 15000 nM; in assay [2], 3800 nM. For the same compound, the “Muscarinic inhibition (pA2)” value in assay [1] is 4.8. Also, the IC50 on H1 receptor (setting [3]) came out at 0.14 µM.

In the case of `COc1ccccc1CNCCCCCCNCCCCCCCCNCCCCCCNCc1ccccc1OC` [Methoctramine], in assay [1], the Kb was 2510 nM and the “Muscarinic inhibition (pA2)” value stood at 5.6.

`NCCc1c[nH]cn1` [histamine]: the “maximum increase in current (ΔIsc)” value on H1 receptor was determined as 19 ± 1 μA/cm^2.
